This is an account of results in ChEMBL document CHEMBL1914402, “Design, synthesis, and biological evaluation of 3,4-dihydroquinolin-2(1H)-one and 1,2,3,4-tetrahydroquinoline-based selective human neuronal nitric oxide synthase (nNOS) inhibitors” (J Med Chem, 2011).

The target in one experiment is Nitric oxide synthase 1 (Homo sapiens, UniProt P29475). In words: Inhibition of human recombinant nNOS expressed in baculovirus infected Sf9 cells assessed as conversion of [3H]L-arginine to [3H]L-citrulline preincubated for 15 mins measured after 45 mins by liquid scintillation counting. In kind it is cell-based.
Experiment [1] has as its target Nitric oxide synthase, inducible (Homo sapiens, UniProt P35228). Description: Inhibition of human recombinant iNOS expressed in baculovirus infected Sf9 cells assessed as conversion of [3H]L-arginine to [3H]L-citrulline preincubated for 15 mins measured after 45 mins by liquid scintillation counting. In kind it is cell-based.
A further experiment deals with Cytochrome P450 2D6 (Homo sapiens, UniProt P10635). In words: Inhibition of human CYP2D6. It counts as ADME.
A further experiment addresses Cytochrome P450 2C19 (Homo sapiens, UniProt P33261). In words: Inhibition of human CYP2C19. In kind it is ADME.
The target in a further experiment is T1, Cytochrome P450 1A2 (Homo sapiens, UniProt P05177).
T1 sequence (P05177 whole entry): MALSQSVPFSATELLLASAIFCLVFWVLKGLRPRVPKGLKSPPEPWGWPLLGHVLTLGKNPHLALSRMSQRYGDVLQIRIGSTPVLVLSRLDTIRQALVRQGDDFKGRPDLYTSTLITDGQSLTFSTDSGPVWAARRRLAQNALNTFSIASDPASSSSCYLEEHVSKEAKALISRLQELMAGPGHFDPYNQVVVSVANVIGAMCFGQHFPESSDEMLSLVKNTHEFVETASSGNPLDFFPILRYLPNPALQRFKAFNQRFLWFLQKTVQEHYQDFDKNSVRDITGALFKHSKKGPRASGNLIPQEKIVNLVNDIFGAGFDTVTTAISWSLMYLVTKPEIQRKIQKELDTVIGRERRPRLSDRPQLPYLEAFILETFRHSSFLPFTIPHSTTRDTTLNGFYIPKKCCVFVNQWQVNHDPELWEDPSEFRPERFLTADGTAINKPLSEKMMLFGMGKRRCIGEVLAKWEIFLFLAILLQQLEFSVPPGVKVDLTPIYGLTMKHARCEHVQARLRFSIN
Description: Inhibition of human CYP1A2. In kind it is ADME.

The next experiment has as its target Cytochrome P450 2C9 (Homo sapiens, UniProt P11712). In words: Inhibition of human CYP2C9. In kind it is ADME.
The target in another experiment is Cytochrome P450 3A4 (Homo sapiens, UniProt P08684). In words: Inhibition of human CYP3A4. In kind it is ADME.
A further experiment concerns the target T2, Nitric oxide synthase 3 (Homo sapiens, UniProt P29474).
T2 sequence (P29474 whole entry): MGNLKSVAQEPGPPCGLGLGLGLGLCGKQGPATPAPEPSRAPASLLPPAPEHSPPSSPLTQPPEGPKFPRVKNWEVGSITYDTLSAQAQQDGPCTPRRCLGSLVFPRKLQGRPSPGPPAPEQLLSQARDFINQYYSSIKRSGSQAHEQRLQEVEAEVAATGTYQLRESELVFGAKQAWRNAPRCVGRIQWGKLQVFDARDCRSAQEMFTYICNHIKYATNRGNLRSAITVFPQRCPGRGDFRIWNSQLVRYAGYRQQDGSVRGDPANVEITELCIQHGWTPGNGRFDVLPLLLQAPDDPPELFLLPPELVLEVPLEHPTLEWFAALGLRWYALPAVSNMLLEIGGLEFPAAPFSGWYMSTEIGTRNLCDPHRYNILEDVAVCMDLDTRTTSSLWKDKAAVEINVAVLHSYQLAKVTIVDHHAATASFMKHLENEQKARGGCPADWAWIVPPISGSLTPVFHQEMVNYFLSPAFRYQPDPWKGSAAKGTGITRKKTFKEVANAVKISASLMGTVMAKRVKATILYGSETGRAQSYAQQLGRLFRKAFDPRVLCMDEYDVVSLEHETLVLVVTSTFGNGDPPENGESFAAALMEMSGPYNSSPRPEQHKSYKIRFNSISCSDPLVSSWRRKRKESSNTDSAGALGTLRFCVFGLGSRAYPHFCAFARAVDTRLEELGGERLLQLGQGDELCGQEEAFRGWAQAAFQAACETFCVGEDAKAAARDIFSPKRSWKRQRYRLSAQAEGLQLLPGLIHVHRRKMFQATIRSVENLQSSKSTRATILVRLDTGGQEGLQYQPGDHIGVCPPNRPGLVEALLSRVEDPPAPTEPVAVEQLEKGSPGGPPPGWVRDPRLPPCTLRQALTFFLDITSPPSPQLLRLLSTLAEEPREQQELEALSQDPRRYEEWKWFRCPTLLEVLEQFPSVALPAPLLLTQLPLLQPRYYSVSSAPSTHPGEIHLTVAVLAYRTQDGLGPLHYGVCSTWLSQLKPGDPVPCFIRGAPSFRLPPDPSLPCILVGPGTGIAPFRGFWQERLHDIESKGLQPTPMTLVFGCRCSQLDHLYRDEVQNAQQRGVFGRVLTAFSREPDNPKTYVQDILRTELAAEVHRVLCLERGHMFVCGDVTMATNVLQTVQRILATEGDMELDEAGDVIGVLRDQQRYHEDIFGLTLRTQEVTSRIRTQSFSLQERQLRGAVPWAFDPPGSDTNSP
In words: Inhibition of human recombinant eNOS expressed in baculovirus infected Sf9 cells assessed as conversion of [3H]L-arginine to [3H]L-citrulline preincubated for 15 mins measured after 45 mins by liquid scintillation counting. It counts as cell-based.

Sequence of Cytochrome P450 2D6 (P10635 whole entry): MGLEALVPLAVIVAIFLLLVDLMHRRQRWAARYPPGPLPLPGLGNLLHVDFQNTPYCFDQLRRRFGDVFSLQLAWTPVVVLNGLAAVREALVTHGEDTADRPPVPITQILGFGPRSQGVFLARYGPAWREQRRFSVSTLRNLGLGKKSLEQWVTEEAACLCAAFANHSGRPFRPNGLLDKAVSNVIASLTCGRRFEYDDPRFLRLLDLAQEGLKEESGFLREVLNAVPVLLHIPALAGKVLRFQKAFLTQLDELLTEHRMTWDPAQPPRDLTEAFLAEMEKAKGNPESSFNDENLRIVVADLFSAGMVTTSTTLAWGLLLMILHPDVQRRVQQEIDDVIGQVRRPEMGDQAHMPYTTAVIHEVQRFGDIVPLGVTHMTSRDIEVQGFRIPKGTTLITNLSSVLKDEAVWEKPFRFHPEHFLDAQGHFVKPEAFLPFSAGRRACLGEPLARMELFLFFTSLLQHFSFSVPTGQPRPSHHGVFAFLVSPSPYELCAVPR
Sequence of Cytochrome P450 2C9 (P11712 whole entry): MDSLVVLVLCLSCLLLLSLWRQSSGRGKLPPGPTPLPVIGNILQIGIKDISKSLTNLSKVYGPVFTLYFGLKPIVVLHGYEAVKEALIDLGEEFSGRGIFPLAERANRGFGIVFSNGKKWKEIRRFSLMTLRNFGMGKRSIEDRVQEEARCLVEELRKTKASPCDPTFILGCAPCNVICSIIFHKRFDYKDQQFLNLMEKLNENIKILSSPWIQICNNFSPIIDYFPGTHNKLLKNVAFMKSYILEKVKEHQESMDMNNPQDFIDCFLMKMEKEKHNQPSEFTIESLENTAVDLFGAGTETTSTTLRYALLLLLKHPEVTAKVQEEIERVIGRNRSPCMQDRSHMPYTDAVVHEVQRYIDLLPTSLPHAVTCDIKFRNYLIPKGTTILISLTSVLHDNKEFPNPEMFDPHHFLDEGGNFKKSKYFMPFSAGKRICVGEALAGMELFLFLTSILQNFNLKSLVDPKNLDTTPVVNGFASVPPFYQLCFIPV
Sequence of Cytochrome P450 2C19 (P33261 whole entry): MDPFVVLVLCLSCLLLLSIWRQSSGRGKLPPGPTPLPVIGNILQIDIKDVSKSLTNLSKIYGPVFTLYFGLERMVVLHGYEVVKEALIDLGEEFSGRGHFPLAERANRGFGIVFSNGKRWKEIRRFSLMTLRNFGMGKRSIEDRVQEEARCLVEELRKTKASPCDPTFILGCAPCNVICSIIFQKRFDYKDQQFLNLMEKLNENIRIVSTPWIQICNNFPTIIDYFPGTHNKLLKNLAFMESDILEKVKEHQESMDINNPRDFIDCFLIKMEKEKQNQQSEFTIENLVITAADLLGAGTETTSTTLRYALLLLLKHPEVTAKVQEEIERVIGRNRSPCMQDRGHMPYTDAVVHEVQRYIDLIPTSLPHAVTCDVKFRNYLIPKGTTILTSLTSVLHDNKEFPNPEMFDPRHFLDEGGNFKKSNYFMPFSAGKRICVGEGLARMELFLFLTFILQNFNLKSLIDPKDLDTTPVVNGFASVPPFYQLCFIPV
Sequence of Nitric oxide synthase 1 (P29475 whole entry): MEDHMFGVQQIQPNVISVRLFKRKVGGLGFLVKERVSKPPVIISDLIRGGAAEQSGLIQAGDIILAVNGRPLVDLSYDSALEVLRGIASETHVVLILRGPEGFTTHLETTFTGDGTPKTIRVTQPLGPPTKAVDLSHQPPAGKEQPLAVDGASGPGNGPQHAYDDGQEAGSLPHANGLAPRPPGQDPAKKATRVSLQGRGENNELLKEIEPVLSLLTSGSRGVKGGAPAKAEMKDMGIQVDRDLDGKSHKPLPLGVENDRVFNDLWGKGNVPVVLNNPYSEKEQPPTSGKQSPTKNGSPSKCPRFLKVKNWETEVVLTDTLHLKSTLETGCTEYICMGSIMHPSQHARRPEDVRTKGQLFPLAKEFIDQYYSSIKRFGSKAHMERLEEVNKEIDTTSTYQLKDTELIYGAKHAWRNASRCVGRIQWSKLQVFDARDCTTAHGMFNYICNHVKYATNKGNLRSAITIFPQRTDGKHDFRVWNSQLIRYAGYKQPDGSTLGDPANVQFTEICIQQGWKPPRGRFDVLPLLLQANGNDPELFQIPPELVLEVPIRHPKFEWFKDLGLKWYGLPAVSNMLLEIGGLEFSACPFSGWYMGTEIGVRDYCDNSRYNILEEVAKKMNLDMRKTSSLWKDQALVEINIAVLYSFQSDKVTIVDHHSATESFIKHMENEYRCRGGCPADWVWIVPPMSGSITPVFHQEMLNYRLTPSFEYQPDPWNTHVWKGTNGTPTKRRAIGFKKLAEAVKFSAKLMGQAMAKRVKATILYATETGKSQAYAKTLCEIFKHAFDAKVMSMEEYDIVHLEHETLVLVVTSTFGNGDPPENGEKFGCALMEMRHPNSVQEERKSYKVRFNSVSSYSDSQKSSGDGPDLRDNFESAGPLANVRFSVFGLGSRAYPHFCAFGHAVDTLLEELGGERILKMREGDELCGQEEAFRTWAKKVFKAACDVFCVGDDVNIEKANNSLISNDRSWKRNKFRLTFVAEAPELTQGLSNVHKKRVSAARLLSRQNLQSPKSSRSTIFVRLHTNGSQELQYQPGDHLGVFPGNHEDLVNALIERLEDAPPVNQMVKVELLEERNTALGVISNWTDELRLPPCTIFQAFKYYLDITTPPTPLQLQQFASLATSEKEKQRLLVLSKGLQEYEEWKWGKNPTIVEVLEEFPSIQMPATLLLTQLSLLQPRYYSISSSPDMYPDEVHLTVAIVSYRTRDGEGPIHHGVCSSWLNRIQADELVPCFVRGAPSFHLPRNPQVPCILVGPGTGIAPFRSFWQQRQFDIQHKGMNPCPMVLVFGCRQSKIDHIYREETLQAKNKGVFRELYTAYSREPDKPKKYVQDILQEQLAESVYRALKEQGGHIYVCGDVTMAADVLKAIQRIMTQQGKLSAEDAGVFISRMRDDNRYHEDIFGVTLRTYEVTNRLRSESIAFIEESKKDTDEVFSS
Sequence of Cytochrome P450 3A4 (P08684 whole entry): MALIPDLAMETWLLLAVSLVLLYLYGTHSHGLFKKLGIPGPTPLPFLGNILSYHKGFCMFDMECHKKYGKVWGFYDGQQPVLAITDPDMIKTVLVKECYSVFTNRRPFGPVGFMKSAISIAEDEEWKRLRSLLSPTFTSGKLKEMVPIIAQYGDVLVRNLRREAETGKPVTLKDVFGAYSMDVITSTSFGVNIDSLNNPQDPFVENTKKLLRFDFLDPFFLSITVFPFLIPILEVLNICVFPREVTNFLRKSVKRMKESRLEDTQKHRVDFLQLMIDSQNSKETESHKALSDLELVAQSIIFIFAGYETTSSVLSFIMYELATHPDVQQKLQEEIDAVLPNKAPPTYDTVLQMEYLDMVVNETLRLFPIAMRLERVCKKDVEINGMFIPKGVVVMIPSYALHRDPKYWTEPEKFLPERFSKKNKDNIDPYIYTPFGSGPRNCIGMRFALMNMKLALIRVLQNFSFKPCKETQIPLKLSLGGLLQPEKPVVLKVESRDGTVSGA
Sequence of Nitric oxide synthase, inducible (P35228 whole entry): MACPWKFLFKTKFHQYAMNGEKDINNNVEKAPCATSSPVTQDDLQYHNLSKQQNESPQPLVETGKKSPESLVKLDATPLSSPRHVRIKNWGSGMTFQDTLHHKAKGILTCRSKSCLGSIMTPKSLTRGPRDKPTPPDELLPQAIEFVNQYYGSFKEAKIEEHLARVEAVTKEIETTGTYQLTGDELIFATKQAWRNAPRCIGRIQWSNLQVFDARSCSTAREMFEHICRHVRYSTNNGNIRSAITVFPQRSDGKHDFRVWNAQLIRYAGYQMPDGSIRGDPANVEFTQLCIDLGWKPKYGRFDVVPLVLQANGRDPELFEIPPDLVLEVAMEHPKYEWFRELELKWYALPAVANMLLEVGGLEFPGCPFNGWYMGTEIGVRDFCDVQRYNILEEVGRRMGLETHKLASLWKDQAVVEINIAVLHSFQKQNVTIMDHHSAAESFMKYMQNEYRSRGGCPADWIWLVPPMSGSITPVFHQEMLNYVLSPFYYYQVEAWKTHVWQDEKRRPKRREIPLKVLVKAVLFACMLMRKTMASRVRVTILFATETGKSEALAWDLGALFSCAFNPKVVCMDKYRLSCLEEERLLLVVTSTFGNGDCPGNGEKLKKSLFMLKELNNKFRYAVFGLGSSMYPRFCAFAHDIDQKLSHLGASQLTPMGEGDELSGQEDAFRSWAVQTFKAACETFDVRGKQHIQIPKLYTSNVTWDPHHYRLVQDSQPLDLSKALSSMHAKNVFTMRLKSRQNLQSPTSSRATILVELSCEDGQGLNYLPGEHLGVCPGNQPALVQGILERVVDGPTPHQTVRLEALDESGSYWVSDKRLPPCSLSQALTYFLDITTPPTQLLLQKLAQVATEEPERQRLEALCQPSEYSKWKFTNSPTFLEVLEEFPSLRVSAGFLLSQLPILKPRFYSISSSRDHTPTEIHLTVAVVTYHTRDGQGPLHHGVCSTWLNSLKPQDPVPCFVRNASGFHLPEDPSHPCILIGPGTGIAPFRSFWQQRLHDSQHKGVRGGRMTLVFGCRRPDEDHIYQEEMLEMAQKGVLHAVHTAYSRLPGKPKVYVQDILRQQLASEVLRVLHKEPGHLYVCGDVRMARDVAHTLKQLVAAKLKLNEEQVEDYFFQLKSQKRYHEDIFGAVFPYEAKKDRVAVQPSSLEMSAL

Regarding `N=C(Nc1ccc2c(c1)CCC(=O)N2CCN1CCCC1)c1cccs1`, the results for the IC50 (on Nitric oxide synthase 1; in experiment [1]) were 0.16 µM and 11 µM, respectively.
The like results for `N=C(Nc1ccc2c(c1)CCC(=O)N2CCCN1CCCC1)c1cccs1` were, in that order, 1.22 µM and greater than 100 µM.
For `CN(C)CCN1CCCc2cc(NC(=N)c3cccs3)ccc21`, the IC50 on Cytochrome P450 2D6, against Cytochrome P450 2C19, against Cytochrome P450 1A2, against Cytochrome P450 2C9 and at Cytochrome P450 3A4 was greater than 100 µM each time.
`CCN(CC)CCN1CCCc2cc(NC(=N)c3cccs3)ccc21`: the IC50 – broadly, the midpoint of a concentration-inhibition curve – at Nitric oxide synthase 1 is 0.26 µM; in experiment [1], greater than 100 µM.
Take `N=C(Nc1ccc2c(c1)CCCN2CCCN1CCCC1)c1cccs1`: the half-maximal inhibitory concentration (IC50) came to 9.5 µM at Nitric oxide synthase 3 and 0.086 µM on Nitric oxide synthase 1.
In the case of `CCN(CC)CCN1C(=O)CCc2cc(NC(=N)c3cccs3)ccc21`, the IC50 in experiment [1] worked out at 12 µM.
Same read-out and setting: with `N=C(Nc1ccc2c(c1)CCC(=O)N2CCN1CCCCC1)c1cccs1` the figure was greater than 100 µM.
Take `CN(C)CCN1CCCc2cc(NC(=N)c3cccs3)cc(F)c21`: on Nitric oxide synthase 1, the IC50 was 0.093 µM.
Turning to `CN(C)CCN1C(=O)CCc2cc(NC(=N)c3cccs3)ccc21`, the IC50 against Cytochrome P450 2D6 was 12.2 µM; at Cytochrome P450 2C19 it was greater than 100 µM; on Cytochrome P450 1A2, greater than 100 µM; in experiment [1], 35 µM; against Cytochrome P450 2C9, greater than 100 µM; against Cytochrome P450 3A4, greater than 100 µM.
For the molecule `CN(C)CCN1C(=O)CCc2cc(NC(=N)c3cccs3)cc(F)c21`, the half-inhibitory concentration (IC50) at Nitric oxide synthase 1 stood at 3.36 µM.
For `CN1CCC(N2CCCc3cc(NC(=N)c4cccs4)ccc32)CC1`, the IC50 at Nitric oxide synthase 3 was 42.7 µM; at Nitric oxide synthase 1, 0.82 µM.
For `N=C(Nc1ccc2c(c1)CCCN2C1CCNCC1)c1cccs1`, the IC50 was 119 µM on Nitric oxide synthase 3; greater than 100 µM against Cytochrome P450 2D6; 47.1 µM at Cytochrome P450 2C19; 0.54 µM at Nitric oxide synthase 1; greater than 100 µM on Cytochrome P450 1A2; greater than 100 µM in experiment [1]. For the same molecule, the IC50 against Cytochrome P450 2C9 and at Cytochrome P450 3A4 was greater than 100 µM each time.
On to `CN1CCCC1CCN1C(=O)CCc2cc(NC(=N)c3cccs3)ccc21` (racemic), for which the half-inhibitory concentration (IC50) was 1.05 µM on Nitric oxide synthase 1 and greater than 100 µM in experiment [1].
